Assay: xn = mol fraction of the nth substance listed
Conditions: 101 kPa, Liquid; for viscosity: Capillary tube (Ostwald / Ubbelohde) method; for mass density: Pycnometric method

CC(=O)CC(C)=O [2,4-pentanedione] + CC1COC(=O)O1
Conditions	mass density, 288.15 K [kg/m3]	mass density, 298.15 K [kg/m3]	mass density, 308.15 K [kg/m3]	viscosity, 288.15 K [mPa·s]	viscosity, 298.15 K [mPa·s]	viscosity, 308.15 K [mPa·s]
x2 = 0	980.34	972.18	963.46	0.741	0.67	0.609
x2 = 0.0212	984.24	975.79	966.83	0.769	0.692	0.627
x2 = 0.0438	988.61	979.89	970.69	0.797	0.714	0.646
x2 = 0.0625	992.42	983.48	974.11	0.821	0.732	0.661
x2 = 0.0827	996.68	987.54	977.99	0.845	0.751	0.677
x2 = 0.1026	1001.03	991.71	982	0.868	0.769	0.693
x2 = 0.201	1024.5	1014.55	1004.29	0.978	0.857	0.766
x2 = 0.2982	1050.05	1039.83	1029.34	1.086	0.944	0.838
x2 = 0.4028	1078.89	1068.64	1058.14	1.215	1.047	0.922
x2 = 0.5	1105.74	1095.61	1085.24	1.359	1.162	1.014
x2 = 0.6016	1132.67	1122.7	1112.52	1.549	1.313	1.133
x2 = 0.6985	1156.08	1146.19	1136.15	1.782	1.495	1.277
x2 = 0.7995	1176.95	1166.95	1156.95	2.093	1.735	1.466
x2 = 0.9016	1193.11	1182.69	1172.51	2.493	2.04	1.706
